Measured values: ChEMBL document CHEMBL1201862, “PubChem BioAssay data set” (2004)
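48-hour exposure; five concentrations; linearly interpolated endpoints. GI50: concentration for 50% inhibition of growth.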 Active and inactive are the calls of the source. No stated cut-off is given here; in the data, active = GI50 up to about 1.1 µM and inactive = higher.

How the values were obtained:
Test in all cases: NCI tumour cell line growth inhibition, 48 h
[1] = tested on: A549
[2] = tested on: ACHN
[3] = tested on: CCRF-CEM
[4] = tested on: COLO 205
[5] = tested on: DLD-1
[6] = tested on: DMS-114
[7] = tested on: DMS-273
[8] = tested on: EKVX
[9] = tested on: HCC 2998
[10] = tested on: HCT-116
[11] = tested on: HCT-15
[12] = tested on: HL-60
[13] = tested on: HOP-62
[14] = tested on: HT-29
[15] = tested on: IGROV-1
[16] = tested on: K562
[17] = tested on: KM-20L2
[18] = tested on: LOX IMVI
[19] = tested on: LXFL 529
[20] = tested on: M14
[21] = tested on: M19-MEL
[22] = tested on: MOLT-4
[23] = tested on: NCI-H226
[24] = tested on: NCI-H23
[25] = tested on: OVCAR-4
[26] = tested on: OVCAR-5
[27] = tested on: OVCAR-8
[28] = tested on: RPMI-8226
[29] = tested on: RXF 393
[30] = tested on: SF-268
[31] = tested on: SF-539
[32] = tested on: SK-MEL-28
[33] = tested on: SK-MEL-5
[34] = tested on: SK-OV-3
[35] = tested on: SN12C
[36] = tested on: SNB-19
[37] = tested on: SNB-75
[38] = tested on: SNB-78
[39] = tested on: SR
[40] = tested on: SW-620
[41] = tested on: TK-10
[42] = tested on: UACC-257
[43] = tested on: UACC-62
[44] = tested on: UO-31
[45] = tested on: XF498
[46] = tested on: A498
[47] = tested on: CAKI-1
[48] = tested on: HOP-18
[49] = tested on: HOP-92
[50] = tested on: KM12
[51] = tested on: MCF7
[52] = tested on: Malme-3M
[53] = tested on: NCI-H460
[54] = tested on: NCI-H522
[55] = tested on: NCI/ADR-RES
[56] = tested on: OVCAR-3
[57] = tested on: SF-295
[58] = tested on: SK-MEL-2
[59] = tested on: U-251

CCN(CC)CCCNC(=O)c1ccccc1Nc1c(Cl)cccc1Cl
GI50 [1]: 15.7 µM (inactive)
GI50 [2]: 10.2 µM (inactive)
GI50 [3]: 6.32 µM (inactive)
GI50 [4]: 12.7 µM (inactive)
GI50 [5]: 11.6 µM (inactive)
GI50 [6]: 12.2 µM (inactive)
GI50 [7]: 17.3 µM (inactive)
GI50 [8]: 11.1 µM (inactive)
GI50 [9]: 7.03 µM (inactive)
GI50 [10]: 11.5 µM (inactive)
GI50 [11]: 12.6 µM
GI50 [12]: 3.18 µM (inactive)
GI50 [13]: 11.9 µM (inactive)
GI50 [14]: 4.23 µM (inactive)
GI50 [15]: 17.6 µM (inactive)
GI50 [16]: 6.76 µM (inactive)
GI50 [17]: 2.56 µM (inactive)
GI50 [18]: 8.55 µM (inactive)
GI50 [19]: 14.6 µM (inactive)
GI50 [20]: 2.64 µM (inactive)
GI50 [21]: 3.28 µM (inactive)
GI50 [22]: 11.8 µM (inactive)
GI50 [23]: 12.4 µM (inactive)
GI50 [24]: 16.6 µM (inactive)
GI50 [25]: 7.31 µM (inactive)
GI50 [26]: 11.7 µM (inactive)
GI50 [27]: 15.7 µM (inactive)
GI50 [28]: 5.68 µM (inactive)
GI50 [29]: 8.11 µM (inactive)
GI50 [30]: 15.5 µM (inactive)
GI50 [31]: 11.4 µM (inactive)
GI50 [32]: 2.94 µM (inactive)
GI50 [33]: 2.96 µM (inactive)
GI50 [34]: 14.2 µM (inactive)
GI50 [35]: 14.2 µM (inactive)
GI50 [36]: 15.6 µM (inactive)
GI50 [37]: 3.43 µM (inactive)
GI50 [38]: 15 µM (inactive)
GI50 [39]: 10.8 µM (inactive)
GI50 [40]: 13.6 µM (inactive)
GI50 [41]: 11.3 µM (inactive)
GI50 [42]: 3.03 µM (inactive)
GI50 [43]: 12 µM (inactive)
GI50 [44]: 6.79 µM (inactive)
GI50 [45]: 2.26 µM (inactive)

O=C(O)CCCCCCC[C@@H]1S[C@H]1CCCCCCO
GI50 [46]: > 60.7 µM (inactive)
GI50 [1]: > 100 µM (inactive)
GI50 [47]: > 100 µM (inactive)
GI50 [3]: > 100 µM (inactive)
GI50 [4]: > 100 µM (inactive)
GI50 [5]: > 100 µM (inactive)
GI50 [6]: > 100 µM (inactive)
GI50 [7]: > 100 µM (inactive)
GI50 [8]: > 100 µM (inactive)
GI50 [9]: > 100 µM (inactive)
GI50 [10]: > 100 µM (inactive)
GI50 [11]: > 100 µM
GI50 [12]: > 100 µM (inactive)
GI50 [48]: > 100 µM (inactive)
GI50 [13]: > 100 µM (inactive)
GI50 [49]: 33.8 µM (inactive)
GI50 [14]: > 100 µM (inactive)
GI50 [15]: > 64.7 µM (inactive)
GI50 [16]: > 100 µM (inactive)
GI50 [17]: > 100 µM (inactive)
GI50 [50]: > 100 µM (inactive)
GI50 [18]: > 100 µM (inactive)
GI50 [21]: > 100 µM (inactive)
GI50 [51]: > 100 µM (inactive)
GI50 [22]: > 100 µM (inactive)
GI50 [52]: > 100 µM (inactive)
GI50 [23]: > 100 µM (inactive)
GI50 [24]: > 100 µM (inactive)
GI50 [53]: > 100 µM (inactive)
GI50 [54]: > 100 µM (inactive)
GI50 [55]: > 100 µM (inactive)
GI50 [56]: > 100 µM (inactive)
GI50 [25]: > 100 µM (inactive)
GI50 [26]: > 100 µM (inactive)
GI50 [27]: > 100 µM (inactive)
GI50 [28]: > 100 µM (inactive)
GI50 [29]: > 100 µM (inactive)
GI50 [30]: > 100 µM (inactive)
GI50 [57]: > 100 µM (inactive)
GI50 [31]: > 100 µM (inactive)
GI50 [32]: > 100 µM (inactive)
GI50 [58]: > 100 µM (inactive)
GI50 [33]: > 100 µM (inactive)
GI50 [34]: > 100 µM (inactive)
GI50 [35]: > 100 µM (inactive)
GI50 [36]: > 100 µM (inactive)
GI50 [37]: > 100 µM (inactive)
GI50 [38]: > 100 µM (inactive)
GI50 [40]: > 100 µM (inactive)
GI50 [59]: > 100 µM (inactive)
GI50 [42]: > 100 µM (inactive)
GI50 [43]: > 100 µM (inactive)
GI50 [44]: > 100 µM (inactive)
GI50 [45]: > 100 µM (inactive)

CC(C)CC/N=c1/cc2n(-c3ccc(Cl)cc3)c3ccccc3nc-2cc1Nc1ccc(Cl)cc1
GI50 [46]: 15 µM (inactive)
GI50 [1]: 15.3 µM (inactive)
GI50 [47]: 10.4 µM (inactive)
GI50 [3]: 3.72 µM (inactive)
GI50 [4]: 1.95 µM (inactive)
GI50 [5]: 1.97 µM (inactive)
GI50 [6]: 1.94 µM (inactive)
GI50 [7]: 14.6 µM (inactive)
GI50 [8]: 6.12 µM (inactive)
GI50 [9]: 3.86 µM (inactive)
GI50 [10]: 3.77 µM (inactive)
GI50 [11]: 3.42 µM
GI50 [12]: 2.51 µM (inactive)
GI50 [48]: 7.05 µM (inactive)
GI50 [13]: 8.71 µM (inactive)
GI50 [49]: 4.92 µM (inactive)
GI50 [14]: 2.52 µM (inactive)
GI50 [15]: 3.13 µM (inactive)
GI50 [16]: 2.96 µM (inactive)
GI50 [17]: 1.34 µM (inactive)
GI50 [50]: 4.3 µM (inactive)
GI50 [18]: 2.89 µM (inactive)
GI50 [21]: 6.89 µM (inactive)
GI50 [51]: 5.36 µM (inactive)
GI50 [22]: 2.16 µM (inactive)
GI50 [52]: 11.9 µM (inactive)
GI50 [23]: 6.25 µM (inactive)
GI50 [24]: 3.43 µM (inactive)
GI50 [53]: 4.92 µM (inactive)
GI50 [54]: 2.11 µM (inactive)
GI50 [55]: 10.1 µM (inactive)
GI50 [56]: 2 µM (inactive)
GI50 [25]: 2.65 µM (inactive)
GI50 [26]: 12.4 µM (inactive)
GI50 [27]: 7.78 µM (inactive)
GI50 [28]: 2.22 µM (inactive)
GI50 [29]: 3.37 µM (inactive)
GI50 [30]: 27.5 µM (inactive)
GI50 [57]: 11.9 µM (inactive)
GI50 [31]: 16 µM (inactive)
GI50 [32]: 15.6 µM (inactive)
GI50 [58]: 3.96 µM (inactive)
GI50 [33]: 12.7 µM (inactive)
GI50 [34]: 18.1 µM (inactive)
GI50 [35]: 9.27 µM (inactive)
GI50 [36]: 32.3 µM (inactive)
GI50 [37]: 9.75 µM (inactive)
GI50 [38]: 15.5 µM (inactive)
GI50 [40]: 6.44 µM (inactive)
GI50 [59]: 8.67 µM (inactive)
GI50 [42]: 7.6 µM (inactive)
GI50 [43]: 5.52 µM (inactive)
GI50 [44]: 5.56 µM (inactive)
GI50 [45]: 6.64 µM (inactive)
